Results: paper PMC8213057, “Targeting ALK2: An Open Science Approach to Developing Therapeutics for the Treatment of Diffuse Intrinsic Pontine Glioma” (Journal of Medicinal Chemistry, 2020)

Assays:
MEKK6 = target: T1, MEKK6 (Homo sapiens, UniProt O95382); settings: 1 μM; Run 1, Run 2
T1 sequence (O95382 1-1288): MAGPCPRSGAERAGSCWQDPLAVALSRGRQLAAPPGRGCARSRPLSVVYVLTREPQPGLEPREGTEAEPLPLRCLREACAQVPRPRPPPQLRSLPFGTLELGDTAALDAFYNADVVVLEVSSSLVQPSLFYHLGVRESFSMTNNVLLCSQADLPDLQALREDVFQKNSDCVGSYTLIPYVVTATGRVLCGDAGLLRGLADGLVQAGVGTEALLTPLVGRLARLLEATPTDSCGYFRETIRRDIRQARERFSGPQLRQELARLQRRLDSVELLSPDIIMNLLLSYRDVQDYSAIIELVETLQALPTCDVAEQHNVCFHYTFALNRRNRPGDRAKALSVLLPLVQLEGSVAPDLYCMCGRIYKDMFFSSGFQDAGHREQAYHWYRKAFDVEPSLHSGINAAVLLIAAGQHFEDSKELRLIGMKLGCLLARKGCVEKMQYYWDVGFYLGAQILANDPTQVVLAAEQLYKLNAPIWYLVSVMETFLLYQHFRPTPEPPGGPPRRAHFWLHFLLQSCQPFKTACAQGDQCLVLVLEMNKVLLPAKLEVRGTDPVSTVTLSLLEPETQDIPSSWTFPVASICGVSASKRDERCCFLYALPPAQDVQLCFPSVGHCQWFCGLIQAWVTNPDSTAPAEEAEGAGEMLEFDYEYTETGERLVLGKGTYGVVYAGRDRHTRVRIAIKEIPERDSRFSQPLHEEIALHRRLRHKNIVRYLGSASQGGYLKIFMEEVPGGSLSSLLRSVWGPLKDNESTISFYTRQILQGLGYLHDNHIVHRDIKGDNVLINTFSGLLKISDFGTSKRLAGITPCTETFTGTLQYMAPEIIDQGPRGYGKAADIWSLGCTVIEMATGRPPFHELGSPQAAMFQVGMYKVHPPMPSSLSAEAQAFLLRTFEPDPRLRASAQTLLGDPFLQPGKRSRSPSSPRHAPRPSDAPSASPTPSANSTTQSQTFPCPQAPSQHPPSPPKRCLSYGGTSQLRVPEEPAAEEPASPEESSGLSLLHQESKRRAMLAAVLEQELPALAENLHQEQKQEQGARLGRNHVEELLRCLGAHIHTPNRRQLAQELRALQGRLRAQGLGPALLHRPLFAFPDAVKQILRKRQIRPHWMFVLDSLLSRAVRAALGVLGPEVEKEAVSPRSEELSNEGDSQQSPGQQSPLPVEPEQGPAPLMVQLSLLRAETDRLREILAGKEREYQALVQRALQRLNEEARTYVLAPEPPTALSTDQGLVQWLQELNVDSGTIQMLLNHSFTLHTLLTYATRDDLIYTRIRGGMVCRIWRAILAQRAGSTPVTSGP

NEK5 = target: T2, NEK5 (Homo sapiens, UniProt Q6P3R8); experiment: biochemical; settings: read-out: % enzyme activity, 1 μM; Run 1, Run 2
T2 sequence (Q6P3R8 1-708): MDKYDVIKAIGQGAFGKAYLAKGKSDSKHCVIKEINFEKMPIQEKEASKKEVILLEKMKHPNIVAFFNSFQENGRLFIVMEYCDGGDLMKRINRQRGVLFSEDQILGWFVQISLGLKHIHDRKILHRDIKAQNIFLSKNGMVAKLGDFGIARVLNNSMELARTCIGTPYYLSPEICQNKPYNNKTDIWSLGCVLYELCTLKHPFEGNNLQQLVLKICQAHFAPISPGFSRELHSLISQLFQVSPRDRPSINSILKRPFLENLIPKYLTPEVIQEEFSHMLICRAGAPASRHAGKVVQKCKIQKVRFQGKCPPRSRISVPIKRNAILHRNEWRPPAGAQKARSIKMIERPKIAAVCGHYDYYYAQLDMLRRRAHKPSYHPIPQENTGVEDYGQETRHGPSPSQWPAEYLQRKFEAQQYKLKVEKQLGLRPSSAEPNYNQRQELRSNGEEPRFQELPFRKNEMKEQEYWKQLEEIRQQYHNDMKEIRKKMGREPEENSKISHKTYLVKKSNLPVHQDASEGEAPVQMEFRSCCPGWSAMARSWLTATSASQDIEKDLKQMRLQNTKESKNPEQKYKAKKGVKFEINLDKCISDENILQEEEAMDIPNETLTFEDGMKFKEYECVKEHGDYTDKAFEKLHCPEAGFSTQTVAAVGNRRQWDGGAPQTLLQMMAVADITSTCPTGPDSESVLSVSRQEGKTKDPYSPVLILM

CAMK2g = CAMK2g (Homo sapiens, UniProt Q13555); experiment: biochemical; settings: read-out: % enzyme activity, 1 μM; Run 1, Run 2
Sequence of CAMK2g (Q13555 whole entry): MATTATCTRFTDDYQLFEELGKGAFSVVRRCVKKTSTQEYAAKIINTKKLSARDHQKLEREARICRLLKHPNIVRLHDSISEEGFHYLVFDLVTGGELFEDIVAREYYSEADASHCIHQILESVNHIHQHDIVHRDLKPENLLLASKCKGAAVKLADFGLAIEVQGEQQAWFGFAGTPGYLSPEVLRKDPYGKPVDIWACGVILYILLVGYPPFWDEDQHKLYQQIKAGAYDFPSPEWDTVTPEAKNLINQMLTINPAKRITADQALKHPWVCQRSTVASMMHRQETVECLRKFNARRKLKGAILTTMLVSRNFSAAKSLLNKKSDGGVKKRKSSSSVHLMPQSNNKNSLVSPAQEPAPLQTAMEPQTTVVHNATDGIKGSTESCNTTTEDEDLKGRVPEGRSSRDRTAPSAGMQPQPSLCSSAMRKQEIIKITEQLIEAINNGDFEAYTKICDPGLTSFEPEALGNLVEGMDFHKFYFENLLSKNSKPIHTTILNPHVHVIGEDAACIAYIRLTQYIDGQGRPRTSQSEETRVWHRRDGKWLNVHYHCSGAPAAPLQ

AURORA B = AURORA B (Homo sapiens, UniProt Q96GD4); settings: 1 μM; Run 1, Run 2
Sequence of AURORA B (Q96GD4 whole entry): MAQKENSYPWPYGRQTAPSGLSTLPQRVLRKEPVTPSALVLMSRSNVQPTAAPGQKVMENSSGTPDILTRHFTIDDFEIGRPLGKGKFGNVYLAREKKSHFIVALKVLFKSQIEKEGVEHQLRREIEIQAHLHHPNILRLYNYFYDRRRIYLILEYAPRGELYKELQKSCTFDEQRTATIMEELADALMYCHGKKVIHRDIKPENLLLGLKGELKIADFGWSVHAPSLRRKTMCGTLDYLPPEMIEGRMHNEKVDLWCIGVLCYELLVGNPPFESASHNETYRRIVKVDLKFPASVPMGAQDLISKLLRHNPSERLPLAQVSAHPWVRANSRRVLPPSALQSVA

CDK19/cyclin C = CDK19/cyclin C (Homo sapiens, UniProt Q9BWU1); experiment: biochemical; settings: read-out: % enzyme activity, 1 μM; Run 1, Run 2
Sequence of CDK19/cyclin C (Q9BWU1 whole entry): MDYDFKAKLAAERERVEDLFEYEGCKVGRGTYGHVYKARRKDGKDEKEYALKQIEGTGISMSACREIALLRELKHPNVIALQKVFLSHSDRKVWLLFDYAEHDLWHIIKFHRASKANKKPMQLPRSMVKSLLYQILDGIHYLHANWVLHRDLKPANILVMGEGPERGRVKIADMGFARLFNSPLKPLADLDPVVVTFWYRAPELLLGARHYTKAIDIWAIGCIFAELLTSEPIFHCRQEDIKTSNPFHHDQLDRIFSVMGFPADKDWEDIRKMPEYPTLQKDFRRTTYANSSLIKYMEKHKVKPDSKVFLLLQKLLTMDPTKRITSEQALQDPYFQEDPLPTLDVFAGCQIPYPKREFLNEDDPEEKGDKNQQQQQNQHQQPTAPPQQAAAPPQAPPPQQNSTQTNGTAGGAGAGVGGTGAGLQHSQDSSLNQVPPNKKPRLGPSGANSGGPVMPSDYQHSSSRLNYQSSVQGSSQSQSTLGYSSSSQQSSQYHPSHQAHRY
Sequence of CDK19/cyclin C (P24863 whole entry partner): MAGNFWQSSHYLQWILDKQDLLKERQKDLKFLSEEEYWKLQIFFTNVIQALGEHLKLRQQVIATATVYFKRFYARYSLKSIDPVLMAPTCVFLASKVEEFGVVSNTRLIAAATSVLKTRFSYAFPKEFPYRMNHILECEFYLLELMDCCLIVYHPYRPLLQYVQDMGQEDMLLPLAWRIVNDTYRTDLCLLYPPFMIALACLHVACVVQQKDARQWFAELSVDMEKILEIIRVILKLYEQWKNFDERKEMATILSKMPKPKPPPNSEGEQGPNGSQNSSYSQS

Compound | % enzyme activity (MEKK6) [%] | remaining activity at 1 µM (NEK5) [%] | remaining activity at 1 µM (CAMK2g) [%] | % enzyme activity (AURORA B) [%] | remaining activity at 1 µM (CDK19/cyclin C) [%]
COc1cc(-c2cncc(-c3ccc(N4CCN(C)CC4)cc3)c2C)cc(F)c1C(N)=O [Compound 26a, 2-Fluoro-6-methoxy-4-(4-methyl-5-(4-(4-methylpiperazin-1-yl)phenyl)pyridin-3-yl)benzamide] | 96.75 | 98.7 | 103 | 100.58 | 79.1
COc1cc(-c2cncc(-c3ccc(N4C[C@@H](C)N(C)[C@@H](C)C4)cc3)c2C)cc(F)c1C(N)=O [Compound 26c, 2-Fluoro-6-methoxy-4-(4-methyl-5-(4-((3R,5S)-3,4,5-trimethylpiperazin-1-yl)phenyl)pyridin-3-yl)benzamide] | 95.16 | 93.2 | 110 | 104.62 | 87.1
